Results taken from PMC3274548, “Toward New Therapeutics for Skin and Soft Tissue Infections: Propargyl-Linked Antifolates Are Potent Inhibitors of MRSA and Streptococcus pyogenes” (PLoS ONE, 2012).
Values after ≈ are worked out from the molar mass of the structure shown. Where two headings read alike, the source gives them in different places.

How the values were obtained:
S. aureus DHFR = biological target: T1, S. aureus DHFR (Staphylococcus aureus, UniProt P0A017); assay: biochemical; assay type: biochemical; details: for IC50: S. aureus DHFR, average of at least three measurements, read-out: IC50 (nM) Sa; for Selectivity (h/Sa): IC50 (human)/IC50 (pathogen)
T1 construct: the DHFR gene was inserted into vector pET41 with a His8 tag for purification; His8; made in house; host or cells: E. coli BL21 (DE3)
Protocol: (§1) S. aureus DHFR was cloned, expressed and purified as previously described. Briefly, the DHFR gene was inserted into vector pET41 with a His8 tag for purification. The protein was expressed in E. coli BL21 (DE3) cells. […] The protein was concentrated to ∼5 mg/mL. S. pyogenes DHFR was cloned using PCR from genomic DNA and inserted in vector pET-41.
(§2) Enzyme inhibition assays were performed by monitoring the rate of NADPH oxidation by the DHFR enzyme at an absorbance of 340 nm over five minutes. Assays were performed in the presence of saturating concentrations of NADPH (100 µM) and initiated with dihydrofolate (1 mM). All assays were completed at 25°C in a buffer containing 20 mM TES pH 7.0, 50 mM KCl, 10 mM 2-mercaptoethanol, 0.5 mM EDTA and 1 mg/mL BSA. Inhibition was measured at least three times with inhibitor concentrations near the IC50 value and the average IC50 value is reported with a standard deviation.

S. pyogenes DHFR = S. pyogenes DHFR (Streptococcus pyogenes, UniProt Q9A091); assay: biochemical; assay type: biochemical; details: for IC50: S. pyogenes DHFR, average of at least three measurements, read-out: IC50 (nM) Sp; for Selectivity (h/Sp): IC50 (human)/IC50 (pathogen)
Sequence of S. pyogenes DHFR (Q9A091 entry or part of it): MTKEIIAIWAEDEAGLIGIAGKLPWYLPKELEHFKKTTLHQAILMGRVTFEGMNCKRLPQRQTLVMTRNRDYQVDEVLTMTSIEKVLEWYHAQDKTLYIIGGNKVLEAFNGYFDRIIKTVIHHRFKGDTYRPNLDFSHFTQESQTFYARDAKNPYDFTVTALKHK
Protocol: as §1, §2

MRSA (S.aureus 13709) = assay: MIC, broth microdilution with Alamar Blue; assay type: cell-based, Staphylococcus aureus; details: for Selectivity MRSA: IC50 (MCF10)/MIC (pathogen), both values in µM
Protocol: (§3) Stock solutions of standard antibiotics and test compounds were made at 50 mM in DMSO. […] For susceptibility testing, 10 µL of glycerol stock was suspended in a 10 mL shake flask culture of chemically defined Isosensitest broth (Oxoid) supplemented with 2% w/v glucose. A sample of the shake flask culture was diluted to 1×10^6 cells/mL in media and added to 96-well test plates (100 µL per well) containing test compounds dispensed in DMSO (2 µL) using serial two-fold dilutions. After an incubation period (30°C) determined from the strain specific doubling time, a 0.03% w/v aqueous solution of resazurin (10 µL) was added and the plates were allowed to incubate; each well was then scored for dye reduction.

Streptococcus pyogenes = assay: MIC, broth microdilution with Alamar Blue; assay type: cell-based; details: for Selectivity S. pyogenes: IC50 (MCF10)/MIC (pathogen), both values in µM
Protocol: as §3

MCF-10 cells = assay: Mammalian cell toxicity (Alamar Blue); assay type: cell-based; details: cytotoxicity, 4 h incubation, read-out: IC50 MCF-10
Protocol: Adherent cell lines were maintained in Eagle's Minimal Essential Media (Sigma-Aldrich, St. Louis, MO, USA) with 2 mM glutamine and Earle's Balanced Salt Solution (HyClone, Logan, UT, USA) adjusted to contain 1.5 g/L sodium bicarbonate, 0.1 mM non-essential amino acids, 1 mM sodium pyruvate and 10% fetal calf serum. Fetal calf serum used in these assays was lot matched throughout. […] Toxicity assays were conducted between passages 10–20. Target compound toxicity was measured by incubating the test compound with the cells for 4 h, washing the cells and finally treating the cells with Alamar Blue. After 12–24 h, the fluorescence of the reduced dye was measured. Fluorescence intensity as a function of test compound concentration was fit to the Fermi equation, using non-linear least squares regression analysis, to estimate IC50 values.

Human DHFR = biological target: T2, Human DHFR (Homo sapiens, UniProt P00374); assay: DHFR enzyme inhibition assay (NADPH oxidation, 340 nm); assay type: biochemical; details: human DHFR; average of at least three measurements; read-out: IC50 (nM) Human
T2 sequence (P00374 1-187): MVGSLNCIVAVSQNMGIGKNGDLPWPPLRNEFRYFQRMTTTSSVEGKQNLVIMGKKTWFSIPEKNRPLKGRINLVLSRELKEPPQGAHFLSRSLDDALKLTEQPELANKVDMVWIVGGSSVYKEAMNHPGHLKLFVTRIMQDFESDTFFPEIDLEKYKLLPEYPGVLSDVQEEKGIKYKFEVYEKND
Protocol: as §2

[1] = tested on: TMP-SMZ-resistant MRSA strain; assay: MIC against clinical isolates of MRSA; assay type: cell-based; details: Staphylococcus aureus, read-out: MIC TMP-SMZ^R
USA100 HA-MRSA = assay: MIC against clinical isolates of MRSA; assay type: cell-based; details: Staphylococcus aureus
hVISA Mu3 = assay: MIC against clinical isolates of MRSA; assay type: cell-based; details: Staphylococcus aureus, read-out: MIC hVISA Mu3
HA-MRSA = assay: MIC against clinical isolates of MRSA; assay type: cell-based; details: Staphylococcus aureus, read-out: MIC HA-MRSA
USA300 CA-MRSA = assay: MIC against clinical isolates of MRSA; assay type: cell-based, Staphylococcus aureus
VISA Mu50 = assay: MIC against clinical isolates of MRSA; assay type: cell-based; details: Staphylococcus aureus, read-out: MIC VISA Mu50
HepG2 cells = assay: Mammalian cell toxicity (Alamar Blue); assay type: cell-based; details: Homo sapiens, cytotoxicity, 4 h incubation
Protocol: Fetal calf serum used in these assays was lot matched throughout. All cultures were maintained under a humidified 5% CO2 atmosphere at 37°C, had media refreshed twice weekly and were subcultured by trypsinization and resuspension at a ratio of 1∶5 each week. Toxicity assays were conducted between passages 10–20. Target compound toxicity was measured by incubating the test compound with the cells for 4 h, washing the cells and finally treating the cells with Alamar Blue. After 12–24 h, the fluorescence of the reduced dye was measured. Fluorescence intensity as a function of test compound concentration was fit to the Fermi equation, using non-linear least squares regression analysis, to estimate IC50 values.

[2] = value in parentheses, read-out: MIC MRSA
[3] = value in parentheses, read-out: MIC S. pyogenes
[4] = Staphylococcus aureus, MRSA, value in parentheses, read-out: MIC MRSA
[5] = Staphylococcus aureus, MRSA, read-out: MIC MRSA
[6] = Streptococcus pyogenes, value in parentheses, read-out: MIC S. pyogenes
[7] = Streptococcus pyogenes, read-out: MIC S. pyogenes

IC50 (S. pyogenes DHFR) | MIC MRSA (MRSA (S.aureus 13709)) | MIC (MRSA (S.aureus 13709); [2]) | MIC S. pyogenes (Streptococcus pyogenes) | MIC (Streptococcus pyogenes; [3]) | SMILES | IC50 (S. aureus DHFR) | IC50 (MCF-10 cells) | Selectivity (h/Sa) (S. aureus DHFR) | Selectivity (h/Sp) (S. pyogenes DHFR) | Selectivity MRSA (MRSA (S.aureus 13709)) | MIC (MRSA (S.aureus 13709); [4]) | MIC (MRSA (S.aureus 13709); [5]) | Selectivity S. pyogenes (Streptococcus pyogenes) | MIC (Streptococcus pyogenes; [6]) | MIC (Streptococcus pyogenes; [7]) | IC50 (Human DHFR) | IC50 (MCF-10 cells; Homo sapiens, MCF10) | further results
350 ± 44 nM | 0.71 µg/mL (≈ 1.91 µM) | 2 µM | 0.024 µg/mL (≈ 0.0644 µM) | 0.064 µM | COc1cc(-c2ccc(C)cc2)cc(C(C)C#Cc2c(C)nc(N)nc2N)c1 (racemic) [Compound 2] | 410 ± 36 nM | 55000 nM | – | – | – | – | – | – | – | – | – | – | –
– | – | – | – | – | CCc1nc(N)nc(N)c1C#CCc1cc(-c2ccccc2)ccc1OC [Compound 7] | 2.4 ± 0.2 nM | – | 125 | 51 | 67 | 1 µM | 0.18 µg/mL | 4,187 | 0.016 µM | 0.006 µg/mL | 300 ± 10 nM | 67000 nM | fold improvement in potency against S. aureus DHFR (S. aureus DHFR; relative to compound 1): 18 fold
– | – | – | – | – | CN[C@H](CC(C)C)C(=O)N[C@H]1C(=O)N[C@@H](CC(N)=O)C(=O)N[C@H]2C(=O)N[C@H]3C(=O)N[C@H](C(=O)N[C@H](C(=O)O)c4cc(O)cc(O)c4-c4cc3ccc4O)[C@H](O)c3ccc(c(Cl)c3)Oc3cc2cc(c3O[C@@H]2O[C@H](CO)[C@@H](O)[C@H](O)[C@H]2O[C@H]2C[C@](C)(N)[C@H](O)[C@H](C)O2)Oc2ccc(cc2Cl)[C@H]1O [Vancomycin, reference compound] | – | – | – | – | – | – | – | – | – | – | – | – | MIC [1]: 2 µg/mL (≈ 1.38 µM); MIC (USA100 HA-MRSA; read-out: MIC USA100 HA-MRSA, clinical isolate, USA100): 1 µg/mL (≈ 0.69 µM); MIC (USA100 HA-MRSA; read-out: MIC USA100 HA-MRSA, clinical isolate, first USA100 column): 0.5 µg/mL (≈ 0.345 µM); MIC (USA100 HA-MRSA; read-out: MIC USA100 HA-MRSA, clinical isolate, third USA100 column): 1 µg/mL (≈ 0.69 µM); MIC (hVISA Mu3): 3 µg/mL (≈ 2.07 µM); MIC (HA-MRSA): 1 µg/mL (≈ 0.69 µM); MIC (USA300 CA-MRSA; Staphylococcus aureus, read-out: MIC USA300 CA-MRSA): 1 µg/mL (≈ 0.69 µM); MIC USA300 CA-MRSA (USA300 CA-MRSA; clinical isolate, USA300): 1 µg/mL (≈ 0.69 µM); MIC (VISA Mu50): 8 µg/mL (≈ 5.52 µM)
52 ± 1.7 nM | 0.18 µg/mL (≈ 0.502 µM) | 0.5 µM | 0.18 µg/mL (≈ 0.502 µM) | 0.5 µM | CCc1nc(N)nc(N)c1C#CCc1cc(OC)cc(-c2ccccc2)c1 [Compound 9] | 59 ± 2.3 nM | 199000 nM | 2.4 | 3 | – | – | – | – | – | – | 140 ± 1 nM | – | MIC MRSA +FCS (MRSA (S.aureus 13709); 10% fetal calf serum): 1.4 µg/mL (≈ 3.91 µM); MIC (MRSA (S.aureus 13709); 10% fetal calf serum, value in parentheses, read-out: MIC MRSA +FCS): 4 µM; MIC S. pyogenes +FCS (Streptococcus pyogenes; 10% FCS): 0.72 µg/mL (≈ 2.01 µM); MIC (Streptococcus pyogenes; 10% FCS, value in parentheses, read-out: MIC S. pyogenes +FCS): 2 µM
– | – | – | – | – | CCc1nc(N)nc(N)c1C#CC(C)c1cc(-c2ccccc2)ccc1OC (stereo not shown) [Compound 11] | 67 ± 5.5 nM | – | 1.5 | 4 | 27 | 2 µM | 0.74 µg/mL | 27 | 2 µM | 0.74 µg/mL | 100 ± 10 nM | 54000 nM | MIC (MRSA (S.aureus 13709); Staphylococcus aureus, MRSA, 10% fetal calf serum, read-out: MIC MRSA +FCS): 11.9 µg/mL; MIC (MRSA (S.aureus 13709); Staphylococcus aureus, MRSA, 10% fetal calf serum, value in parentheses, read-out: MIC MRSA +FCS): 32 µM; MIC (Streptococcus pyogenes; Streptococcus pyogenes, 10% FCS, read-out: MIC S. pyogenes +FCS): 6 µg/mL; MIC (Streptococcus pyogenes; Streptococcus pyogenes, 10% FCS, value in parentheses, read-out: MIC S. pyogenes +FCS): 16 µM; IC50 (HepG2 cells): 77000 nM
